We go through 22 compounds from patent publication US12685735B2 (Foghorn Therapeutics Inc., priority 2020, dated 2026).

The structures appear in SMILES notation.

The target of one assay is BRG-1 (Homo sapiens, UniProt P51532). The assay can be described thus: ATPase catalytic activity assay of BRG-1 (ADP-Glo). As to conditions: ATPase catalytic activity, ADP-Glo; for IC50: read-out: BRG1 IC50 (μM)*; for Emax: read-out: BRG1 Max % Inhibition. It counts as biochemical. The procedure, abridged:
(§1)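 Luminescent ADP-Glo readout of ADP generated by ATP hydrolysis. Post-reaction: ATP depletion reagent, RT 40 min; detection reagent converting ADP→ATP, RT 60 min; luminescence read.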
On the technique in general: In ADP-Glo the light output rises with the ADP produced.

For the next assay, the target named is BRM (Homo sapiens, UniProt P51531). The assay can be described thus: ATPase catalytic activity assay of BRM (ADP-Glo). In kind it is biochemical. As to conditions: for IC50: read-out: BRM IC50 (μM)*. The method, boiled down:
as §1

BRM, sequence (P51531 whole entry): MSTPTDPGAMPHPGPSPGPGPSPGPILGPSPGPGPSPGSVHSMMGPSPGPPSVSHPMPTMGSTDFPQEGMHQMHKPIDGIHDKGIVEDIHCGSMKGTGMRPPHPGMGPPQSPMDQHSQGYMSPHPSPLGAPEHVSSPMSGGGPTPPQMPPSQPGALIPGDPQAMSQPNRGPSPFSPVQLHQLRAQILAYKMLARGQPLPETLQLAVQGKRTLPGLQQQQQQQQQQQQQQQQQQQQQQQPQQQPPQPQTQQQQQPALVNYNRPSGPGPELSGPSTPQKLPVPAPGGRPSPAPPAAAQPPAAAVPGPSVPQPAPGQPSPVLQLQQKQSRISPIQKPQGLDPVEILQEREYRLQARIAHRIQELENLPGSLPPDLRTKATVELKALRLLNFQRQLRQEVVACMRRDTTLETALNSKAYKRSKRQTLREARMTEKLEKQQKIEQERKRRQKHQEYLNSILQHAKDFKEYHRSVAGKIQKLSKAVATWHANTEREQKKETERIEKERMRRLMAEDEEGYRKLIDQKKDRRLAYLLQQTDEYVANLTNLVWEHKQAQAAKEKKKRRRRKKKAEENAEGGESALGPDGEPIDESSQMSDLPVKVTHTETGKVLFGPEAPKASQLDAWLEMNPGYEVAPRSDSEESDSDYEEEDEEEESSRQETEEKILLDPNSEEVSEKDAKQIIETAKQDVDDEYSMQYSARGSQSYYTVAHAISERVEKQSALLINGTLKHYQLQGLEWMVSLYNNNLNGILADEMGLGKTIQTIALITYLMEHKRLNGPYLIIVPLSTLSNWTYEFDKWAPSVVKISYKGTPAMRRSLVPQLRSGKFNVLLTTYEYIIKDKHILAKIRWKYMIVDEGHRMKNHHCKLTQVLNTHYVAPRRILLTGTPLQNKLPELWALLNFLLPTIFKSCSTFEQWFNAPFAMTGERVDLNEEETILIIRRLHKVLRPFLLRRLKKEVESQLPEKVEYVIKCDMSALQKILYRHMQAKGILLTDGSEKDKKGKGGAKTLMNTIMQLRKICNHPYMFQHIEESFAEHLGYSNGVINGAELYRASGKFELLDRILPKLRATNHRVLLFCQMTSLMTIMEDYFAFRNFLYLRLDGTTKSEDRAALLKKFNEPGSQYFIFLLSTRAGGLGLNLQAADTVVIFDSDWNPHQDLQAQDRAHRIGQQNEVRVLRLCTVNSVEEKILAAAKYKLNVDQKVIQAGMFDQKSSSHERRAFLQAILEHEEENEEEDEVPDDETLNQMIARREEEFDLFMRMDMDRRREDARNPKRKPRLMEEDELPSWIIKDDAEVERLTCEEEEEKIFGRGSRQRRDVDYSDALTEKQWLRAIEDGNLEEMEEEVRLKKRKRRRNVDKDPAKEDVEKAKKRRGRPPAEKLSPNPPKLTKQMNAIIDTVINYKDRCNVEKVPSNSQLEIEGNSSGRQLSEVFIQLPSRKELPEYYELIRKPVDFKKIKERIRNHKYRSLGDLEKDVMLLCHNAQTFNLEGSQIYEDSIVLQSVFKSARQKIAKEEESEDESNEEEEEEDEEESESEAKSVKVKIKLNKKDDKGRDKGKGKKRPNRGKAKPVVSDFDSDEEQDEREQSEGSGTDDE
BRG-1, sequence (P51532 whole entry): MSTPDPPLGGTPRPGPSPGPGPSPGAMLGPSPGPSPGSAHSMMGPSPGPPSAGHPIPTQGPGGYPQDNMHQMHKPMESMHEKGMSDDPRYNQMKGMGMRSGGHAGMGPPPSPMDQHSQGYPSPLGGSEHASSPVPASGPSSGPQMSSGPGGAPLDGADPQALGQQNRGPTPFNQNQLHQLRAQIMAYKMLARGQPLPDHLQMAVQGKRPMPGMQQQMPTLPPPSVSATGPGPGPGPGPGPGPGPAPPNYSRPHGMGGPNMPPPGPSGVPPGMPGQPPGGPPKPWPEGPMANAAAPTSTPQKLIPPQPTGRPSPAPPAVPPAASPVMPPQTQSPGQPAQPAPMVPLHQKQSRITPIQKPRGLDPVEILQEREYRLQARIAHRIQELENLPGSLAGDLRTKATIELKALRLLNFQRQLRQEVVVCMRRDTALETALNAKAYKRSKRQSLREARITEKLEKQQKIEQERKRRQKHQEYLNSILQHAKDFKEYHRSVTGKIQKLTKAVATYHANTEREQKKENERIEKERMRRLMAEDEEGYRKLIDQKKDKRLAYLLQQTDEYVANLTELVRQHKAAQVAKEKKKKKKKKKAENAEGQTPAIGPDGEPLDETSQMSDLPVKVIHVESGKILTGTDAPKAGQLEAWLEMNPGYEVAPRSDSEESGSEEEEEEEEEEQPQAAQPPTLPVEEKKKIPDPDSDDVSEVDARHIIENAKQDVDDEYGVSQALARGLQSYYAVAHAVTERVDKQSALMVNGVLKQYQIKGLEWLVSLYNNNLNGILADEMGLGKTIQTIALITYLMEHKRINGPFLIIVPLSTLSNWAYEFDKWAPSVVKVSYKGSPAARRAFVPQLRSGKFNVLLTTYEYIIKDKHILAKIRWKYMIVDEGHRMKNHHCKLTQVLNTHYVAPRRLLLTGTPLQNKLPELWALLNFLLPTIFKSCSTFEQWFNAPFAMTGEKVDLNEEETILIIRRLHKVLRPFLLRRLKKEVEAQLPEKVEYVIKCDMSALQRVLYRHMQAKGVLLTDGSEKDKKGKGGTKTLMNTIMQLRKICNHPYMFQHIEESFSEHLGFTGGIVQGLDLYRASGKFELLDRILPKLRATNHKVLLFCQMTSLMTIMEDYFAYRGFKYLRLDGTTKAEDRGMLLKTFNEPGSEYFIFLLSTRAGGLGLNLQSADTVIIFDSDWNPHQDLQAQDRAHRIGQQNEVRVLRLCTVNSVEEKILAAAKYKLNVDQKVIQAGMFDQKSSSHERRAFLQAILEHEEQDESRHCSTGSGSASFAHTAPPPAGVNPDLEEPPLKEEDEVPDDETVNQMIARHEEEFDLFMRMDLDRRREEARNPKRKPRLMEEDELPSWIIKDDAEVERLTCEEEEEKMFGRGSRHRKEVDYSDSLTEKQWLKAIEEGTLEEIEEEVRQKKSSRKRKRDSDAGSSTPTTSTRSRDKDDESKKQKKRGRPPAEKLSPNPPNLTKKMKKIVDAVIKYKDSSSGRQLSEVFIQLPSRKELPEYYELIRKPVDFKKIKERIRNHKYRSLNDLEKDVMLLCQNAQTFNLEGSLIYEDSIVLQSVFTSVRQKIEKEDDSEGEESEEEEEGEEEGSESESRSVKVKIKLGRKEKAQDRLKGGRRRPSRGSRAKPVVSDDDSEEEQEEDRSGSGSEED

For `CC(C)(CN)c1cccc(C(=O)NCC(=O)Nc2nc(-c3cccc(-c4ccnc(C(F)(F)F)c4)c3)cs2)c1` [Compound 58, 3-(1-amino-2-methylpropan-2-yl)-N-(2-oxo-2-((4-(3-(2-(trifluoromethyl)pyridin-4-yl)phenyl)thiazol-2-yl)amino)ethyl)benzamide], on BRG-1, the IC50 is 1 to 5 µM and the Emax was above 60%. Besides, at BRM, the “BRM Max % Inhibition” value is above 80% and the IC50 lay within 0.1 to 1 µM.
As for `CC(C)(CN)c1cccc(C(=O)NCC(=O)Nc2nc(-c3cccc(-c4ccnc(N)c4)c3)cs2)c1` [Compound 59, 3-(1-amino-2-methylpropan-2-yl)-N-(2-((4-(3-(2-aminopyridin-4-yl)phenyl)thiazol-2-yl)amino)-2-oxoethyl)benzamide], at BRG-1, the IC50 lay within 0.1 to 1 µM and the Emax was above 80%. For the same compound, on BRM, the “BRM Max % Inhibition” value is on record as above 95% and the IC50 is below 0.1 µM.
On the same counts, the results for `CC(C)(CN)c1cccc(C(=O)NCC(=O)Nc2nc(-c3cccc(-c4ccnc(CO)c4)c3)cs2)c1` [Compound 60, 3-(1-amino-2-methylpropan-2-yl)-N-(2-((4-(3-(2-(hydroxymethyl)pyridin-4-yl)phenyl)thiazol-2-yl)amino)-2-oxoethyl)benzamide] are 0.1 to 1 µM, above 80%, above 95% and below 0.1 µM.
On to `CN(C)Cc1cc(-c2cccc(-c3csc(NC(=O)CNC(=O)c4cccc(C(C)(C)CN)c4)n3)c2)ccn1` [Compound 61, 3-(1-amino-2-methylpropan-2-yl)-N-(2-((4-(3-(2-((dimethylamino)methyl)pyridin-4-yl)phenyl)thiazol-2-yl)amino)-2-oxoethyl)benzamide], for which, on BRG-1, the IC50 was 1 to 5 µM and the Emax is above 60%. Moreover, on BRM, the “BRM Max % Inhibition” value was above 90% and the IC50 was 0.1 to 1 µM.
Take `CC(C)(CN)c1cccc(C(=O)NCC(=O)Nc2nc(-c3cccc(CO[C@H]4CC[C@H](O)CC4)c3)cs2)c1` [Compound 62, 3-(1-amino-2-methylpropan-2-yl)-N-(2-((4-(3-((((1R,4R)-4-hydroxycyclohexyl)oxy)methyl)phenyl)thiazol-2-yl)amino)-2-oxoethyl)benzamide]: at BRG-1, the IC50 was above 5 µM and the Emax was above 40%. Also, at BRM, the “BRM Max % Inhibition” value is reported as above 80% and the IC50 is 1 to 5 µM.
Consider `Cc1cc(C(=O)NCC(=O)Nc2nc(-c3cccc(-c4ccncc4)c3)cs2)cc(C(C)(C)CN)c1` [Compound 63, 3-(1-amino-2-methylpropan-2-yl)-5-methyl-N-(2-oxo-2-((4-(3-(pyridin-4-yl)phenyl)thiazol-2-yl)amino)ethyl)benzamide], for which, at BRG-1, the IC50 was above 5 µM and the Emax is above 60%. Also, at BRM, the “BRM Max % Inhibition” value is given as above 80% and the IC50 fell in the range of 1 to 5 µM.
Regarding `CC(C)(CN)c1cccc(C(=O)NCC(=O)Nc2nc(-c3cccc(-c4ccncc4)c3)cs2)c1` [Compound 64, 3-(1-amino-2-methylpropan-2-yl)-N-(2-oxo-2-((4-(3-(pyridin-4-yl)phenyl)thiazol-2-yl)amino)ethyl)benzamide], at BRG-1, the IC50 was in the range of 1 to 5 µM and the Emax is above 80%. Moreover, on BRM, the “BRM Max % Inhibition” value is recorded as above 95% and the IC50 was in the range of 0.1 to 1 µM.
On to `C[C@H](NC(=O)c1cccc(C(C)(C)CN)c1)C(=O)Nc1nc(-c2cccc(-c3ccncc3)c2)cs1` [Compound 65, (S)-3-(1-amino-2-methylpropan-2-yl)-N-(1-oxo-1-((4-(3-(pyridin-4-yl)phenyl)thiazol-2-yl)amino)propan-2-yl)benzamide], for which, on BRG-1, the IC50 was in the range of 0.1 to 1 µM and the Emax is above 95%. For the same compound, at BRM, the “BRM Max % Inhibition” value is on record as above 90% and the IC50 lay within 0.1 to 1 µM.
Take `Cc1cc(-c2cccc(-c3csc(NC(=O)CNC(=O)c4cccc(C(C)(C)CN)c4)n3)c2)cc(C)n1` [Compound 66, 3-(1-amino-2-methylpropan-2-yl)-N-(2-((4-(3-(2,6-dimethylpyridin-4-yl)phenyl)thiazol-2-yl)amino)-2-oxoethyl)benzamide]: on BRG-1, the IC50 lay within 0.1 to 1 µM and the Emax was above 90%. In addition, on BRM, the “BRM Max % Inhibition” value is listed as above 95% and the IC50 is below 0.1 µM.
Taken in the same sequence, the figures for `Cn1ccc2ccc(-c3csc(NC(=O)CNC(=O)c4cccc(C(C)(C)CN)c4)n3)cc2c1=O` [Compound 67, 3-(1-amino-2-methylpropan-2-yl)-N-(2-((4-(2-methyl-1-oxo-1,2-dihydroisoquinolin-7-yl)thiazol-2-yl)amino)-2-oxoethyl)benzamide] were 1 to 5 µM, above 40%, above 70% and 1 to 5 µM.
Taken in the same sequence, the figures for `COC[C@H](NC(=O)c1cccc(C(C)(C)CN)c1)C(=O)Nc1nc(-c2cccc(-c3ccnc(C)c3)c2)cs1` [Compound 68, (S)-3-(1-amino-2-methylpropan-2-yl)-N-(3-methoxy-1-((4-(3-(2-methylpyridin-4-yl)phenyl)thiazol-2-yl)amino)-1-oxopropan-2-yl)benzamide] were 0.1 to 1 µM, above 90%, above 95% and 0.1 to 1 µM.
Taken in the same sequence, the figures for `Cn1ccc(-c2cccc(-c3csc(NC(=O)CNC(=O)c4cccc(C(C)(C)CN)c4)n3)c2)n1` [Compound 69, 3-(1-amino-2-methylpropan-2-yl)-N-(2-((4-(3-(1-methyl-1H-pyrazol-3-yl)phenyl)thiazol-2-yl)amino)-2-oxoethyl)benzamide] were above 5 µM, above 30%, above 70% and 0.1 to 1 µM.
For the compound `Cc1ccc(C(=O)NCC(=O)Nc2nc(-c3cccc(-c4ccn(C)n4)c3)cs2)cc1C(C)(C)CN` [Compound 70, 3-(1-amino-2-methylpropan-2-yl)-4-methyl-N-(2-((4-(3-(1-methyl-1H-pyrazol-3-yl)phenyl)thiazol-2-yl)amino)-2-oxoethyl)benzamide], at BRG-1, the IC50 is above 5 µM and the Emax is above 50%. Further, on BRM, the “BRM Max % Inhibition” value is recorded as above 95% and the IC50 is 0.1 to 1 µM.
On the same counts, the results for `CCc1ccc(C(=O)NCC(=O)Nc2nc(-c3cccc(-c4ccn(C)n4)c3)cs2)cc1C(C)(C)CN` [Compound 71, 3-(1-amino-2-methylpropan-2-yl)-4-ethyl-N-(2-((4-(3-(1-methyl-1H-pyrazol-3-yl)phenyl)thiazol-2-yl)amino)-2-oxoethyl)benzamide] are above 5 µM, above 30%, above 70% and 1 to 5 µM.
`NCC1(c2cccc(C(=O)NCC(=O)Nc3nc(-c4cccc(-c5ccncc5)c4)cs3)c2)CC1` [Compound 72, 3-(1-(aminomethyl)cyclopropyl)-N-(2-oxo-2-((4-(3-(pyridin-4-yl)phenyl)thiazol-2-yl)amino)ethyl)benzamide]: on BRG-1, the IC50 is above 5 µM and the Emax is above 50%. Besides, on BRM, the “BRM Max % Inhibition” value is listed as above 80% and the IC50 was 0.1 to 1 µM.
On the same counts, the results for `CC(C)(CO)c1cccc(C(=O)NCC(=O)Nc2nc(-c3cccc(-c4ccncc4)c3)cs2)c1` [Compound 73, 3-(1-hydroxy-2-methylpropan-2-yl)-N-(2-oxo-2-((4-(3-(pyridin-4-yl)phenyl)thiazol-2-yl)amino)ethyl)benzamide] are 0.1 to 1 µM, above 80%, above 95% and below 0.1 µM.
Turning to `Cc1cc(C(=O)NCC(=O)Nc2nc(-c3cccc(-c4ccncc4)c3)cs2)cc(C(C)(C)C#N)c1C` [Compound 75, 3-(2-cyanopropan-2-yl)-4,5-dimethyl-N-(2-oxo-2-((4-(3-(pyridin-4-yl)phenyl)thiazol-2-yl)amino)ethyl)benzamide], on BRG-1, the IC50 was above 5 µM and the Emax is below 30%. At BRM, the “BRM Max % Inhibition” value is reported as above 80% and the IC50 is 0.1 to 1 µM.
Turning to `CC1(C#N)CCc2ccc(C(=O)NCC(=O)Nc3nc(-c4cccc(-c5ccncc5)c4)cs3)cc21` (stereo not shown) [Compound 76, 3-cyano-3-methyl-N-(2-oxo-2-((4-(3-(pyridin-4-yl)phenyl)thiazol-2-yl)amino)ethyl)-2,3-dihydro-1H-indene-5-carboxamide], on BRG-1, the IC50 was below 0.1 µM and the Emax was above 80%. Further, at BRM, the “BRM Max % Inhibition” value is above 95% and the IC50 is below 0.1 µM.
With `CC(C)(O)c1cccc(C(=O)NCC(=O)Nc2nc(-c3cccc(-c4ccncc4)c3)cs2)c1` [Compound 77], at BRG-1, the IC50 is 0.1 to 1 µM and the Emax was above 80%. In addition, at BRM, the “BRM Max % Inhibition” value is above 90% and the IC50 is 0.1 to 1 µM.
Take `CC(O)(c1cccc(C(=O)NCC(=O)Nc2nc(-c3cccc(-c4ccncc4)c3)cs2)c1)C(F)(F)F` (stereo not shown) [Compound 78, N-(2-oxo-2-((4-(3-(pyridin-4-yl)phenyl)thiazol-2-yl)amino)ethyl)-3-(1,1,1-trifluoro-2-hydroxypropan-2-yl)benzamide]: at BRG-1, the IC50 is 1 to 5 µM and the Emax was above 40%. In addition, on BRM, the “BRM Max % Inhibition” value is on record as above 80% and the IC50 lay within 0.1 to 1 µM.
In the case of `CCC(C)(O)c1cccc(C(=O)NCC(=O)Nc2nc(-c3cccc(-c4ccncc4)c3)cs2)c1` (stereo not shown) [Compound 79, 3-(2-hydroxybutan-2-yl)-N-(2-oxo-2-((4-(3-(pyridin-4-yl)phenyl)thiazol-2-yl)amino)ethyl)benzamide], on BRG-1, the IC50 fell in the range of 0.1 to 1 µM and the Emax was above 50%. For the same compound, at BRM, the “BRM Max % Inhibition” value was above 70% and the IC50 was in the range of 0.1 to 1 µM.
With `CC1(c2cccc(C(=O)NCC(=O)Nc3nc(-c4cccc(-c5ccncc5)c4)cs3)c2)CCNC1=O` (stereo not shown) [Compound 82, 3-(3-methyl-2-oxopyrrolidin-3-yl)-N-(2-oxo-2-((4-(3-(pyridin-4-yl)phenyl)thiazol-2-yl)amino)ethyl)benzamide], on BRG-1, the IC50 fell in the range of 0.1 to 1 µM and the Emax is above 90%. Moreover, at BRM, the “BRM Max % Inhibition” value is above 95% and the IC50 is 0.1 to 1 µM.

The term IC50 denotes the midpoint of a concentration-inhibition curve.
